In one assay the test system is p53 pathway. Particulars: U2OS cells (wild-type TP53); 10 μM nutlin-3a; 5 μM, 10 μM and 20 μM tested.
Another assay deals with HCT116 cells. In words: Cell cycle analysis, EdU and propidium iodide flow cytometry assay. The assay is classed as cell-based, human. Conditions: 24 hrs nutlin-3a treatment. The procedure: Cell cycle analysis: Click-iT™ Plus EdU Alexa Fluor™ 488 Flow Cytometry Assay Kit (Life technologies) was used according to manufacturer's protocol. Briefly, cells were plated a day prior to nutlin-3a or vehicle treatment. After 24 hrs of chemical treatment, cells in S-phase were labeled with […] EdU solution for 2 hrs. FxCycle™ PI/RNase Staining Solution (Life technologies) was used for PI staining. After the staining, cells were analyzed by NovoCyte Quanteon Flow Cytometer Systems (Agilent, Santa Clara, CA, USA).
The PI assay detects total DNA amounts for G1 and G2-phase comparison. The EdU assay labels newly synthesized DNA to detect S-phase.

From the text for p53 pathway: Cell culture conditions: HEK293T (ATCC CRL-11268) and MMNK-1 (JCRB1554) cells were maintained in Dulbecco's modified Eagle's medium (DMEM) with 10% fetal bovine serum (FBS). HCT116 (ATCC CCL-247) cells and U2OS (ATCC HTB-96) were maintained in McCoy's 5A modified medium supplemented with 10% FBS. […] K562 (ATCC CCL-243) cells were maintained in RPMI 1640 with 10% FBS. Cells were authenticated by STR profiling. All cell lines were confirmed by PCR to be free of mycoplasma contamination.
HCT116 and U2OS human cell lines were used for this study. Both cell lines have wild-type TP53 which was independently confirmed.

As to `COc1ccc(C2=N[C@@H](c3ccc(Cl)cc3)[C@@H](c3ccc(Cl)cc3)N2C(=O)N2CCNC(=O)C2)c(OC(C)C)c1` [nutlin-3a], in the assay with p53 pathway, the p53 pathway activation result is on record as “successful p53 pathway activation”. Also, the cell cycle arrest entry with HCT116 cells (HCT116 clonal cells with TP53 I195T mutation, FIG. 4C, P=0.95) was “did not undergo arrest”; with HCT116 cells (HCT116 clonal cells with TP53 Y220C mutation, FIG. 4C, P=0.95), “did not undergo arrest”; with HCT116 cells (wild-type HCT116 cells, FIG. 4c, P<2.2e-16), “arrested”.

(Values after patent publication US20260193642A1, “DIRECT MEASUREMENT OF ENGINEERED CANCER MUTATIONS AND THEIR TRANSCRIPTIONAL PHENOTYPES IN SINGLE CELLS” (The Board of Trustees of the Leland Stanford Junior …, priority 2022, published 2026).)
